From patent US20240373849A1, “INSECT NEUROPEPTIDE ANALOGUES” (THE UNIVERSITY COURT OF THE UNIVERSITY OF GLASGOW, priority 2020, published 2024)
Values joined by “and” are separate entries in the source; they are usually repeats but may differ in a detail not shown here. Equal entries are not always repeated.

Legend:
M. persicae [1] = assay: Feeding of aphids with peptides in artificial diet (Example 1); type: in vivo, Myzus persicae; settings: 10^−5 M
Method: A standard artificial diet for M. persicae was produced as described in Van Emden (2009) and provided the basal diet to which peptides were added for screening purposes. Peptides were diluted individually in the artificial diet to a pre-determined concentration.
Feeding apparatus were constructed using a set-up developed by Sadeghi et al (2009). For this, a piece of Parafilm was stretched over a Plexiglas ring (h=4 cm, Ø=3 cm) and 100 μl of the artificial diet containing the desired neuropeptide analogue was pipette onto the Parafilm membrane. A second piece of Parafilm, stretched to 4 times the original thickness, was stretched over the original layer, sandwiching the artificial diet between two layers of Parafilm. A strip of Parafilm was wrapped around the circumference of the Plexiglas ring, sealing in the diet. A plastic ring (h=1.2 cm, Ø=3.4 cm) was subsequently placed over the Parafilm layer, creating a walled chamber in which to house test aphids in contact with the Parafilm layer containing the artificial diet. Finally, a small Petri dish (h=1 cm, Ø=3.6 cm), modified for ventilation with net cloth, was placed on top of each feeding apparatus to prevent aphid escape.
To obtain aphids for use in experiments, reproducing anholocyclic adults were placed on individual excised leaves of Chinese cabbage at densities of 5 adults per leaf and allowed to reproduce for 24 h. The stem of each excised leaf was held within a 0.5 mL Eppendorf tube containing water via a punctured hole in the Eppendorf lid, and placed individually within a microcage (L=4 cm, Ø=9.5 cm). Following 24h, adults were removed and resultant first instar nymphs (<1 day old and synchronised in age to within 24h) retained. Nymphs were allowed to develop on the Chinese cabbage for 5 days. On day 5, (3rd instar) nymphs were transferred onto the artificial diet containing a neuropeptide analogue at densities of 1 per feeding chamber and monitored daily until death. Aphids were transferred to fresh artificial diet (containing neuropeptide analogue or water control) every 5 days.
The water control group was used to determine baseline lethality. Results for neuropeptide analogues were calculated as % lethality in the remaining population after adjustment for the baseline.

[2] = test system: Drosophila suzukii larvae; assay: Drosophila suzukii larval feeding (Example 8; peptide screening); type: in vivo
[3] = test system: aminopeptidase, endopeptidase, carboxypeptidase; type: in vitro ADME
Method: (§1) Enzyme digests were performed using aminopeptidase, endopeptidase, carboxypeptidase, or Drosophila melanogaster Malpighian tubule tissue extract. Peptide digests were performed in triplicate alongside ‘mock’ digests, where protease was substituted with water to determine peptide stability in aqueous media at 37° C. Several peptides were tested, including 1st generation AH56 and 3rs generation AH259. These are biostable in the presence of purified proteases for >24 hours; and for >3 hours to insect tissue extracts which are enriched for proteases.

Myzus persicae aphids = assay: Topical application by spraying, Potter Spray Tower (Example 3); type: in vivo; settings: 48 hours post spray
Method: Aphids were exposed to test peptides in the absence of additional external stress conditions.
Brassica rapa (Chinese cabbage; Wong Bok) were infested with 30 adult Myzus persicae aphids per plant. Aphids were left at least 2 hours to settle and begin feeding from the host plant.
Potter Spray Tower (Burkard Manufacturing) was ‘primed’ by spraying 1000 μl of liquid coating the inside of the tower. Vehicle spray only (Croda ATPlus UEP 100 LQ-(CQ) 0.1% v/v) was used as a control.
Spray volumes for all solutions were 3000 μl. […] After spraying was completed the plant was allowed to rest on the spray platform for 30 seconds to allow settling of the sprayed chemical.
Post peptide application, each condition was placed into its own individual Bugdorm (Watkins and Doncaster, 44545), to prevent repulsed or displaced aphids moving from one condition to another. Numbers of alive and dead aphids on the plant were counted 48 hours post spray, and the presence of any fresh nymphs noted. Plants were watered prior to spraying but not afterwards to eliminate the possibility of drowning any aphids present or washing off the sprayed liquid.
The vehicle control group was used to determine baseline lethality. Results for neuropeptide analogues were calculated as % lethality in the remaining population after adjustment for the baseline.

[4] = test system: bumblebees (Bombus terrestris); assay: Bumblebee acute oral toxicity test; type: in vivo; settings: for safety towards B. terrestris in the bumblebee oral toxicity assay: in vivo
Method: Oral toxicity against bumblebees (Bombus terrestris) was determined as previously described:
OECD (2017), Test No. 247: Bumblebee, Acute Oral Toxicity Test, OECD Guidelines for the Testing of Chemicals, Section 2, OECD Publishing, Paris, https://doi.org/10.1787/9789264284128-en.
Example data are provided for peptides, AH56, AH257, AH259 in Tables 4, 5 below. […]
Data were acquired for: feeding behaviour—weight of liquid consumed pre- and post-treatment; lethality (days).
There was no negative impact on feeding behaviour from capa peptides. Acute bumblebee toxicity was also assessed for other peptide candidates including: AH270, PEG270. Overall, capa peptides are bee safe.

[5] = type: in vitro ADME, Drosophila melanogaster
Method: as §1

M. persicae [6] = assay: Feeding of aphids with peptides in artificial diet (Example 2; peptide screening, honeydew); type: in vivo, Myzus persicae; settings: Peptide screening, Table 5
Excerpt: First to Fourth generations of peptides were produced with varying structures and tested for CAPA receptor agonist activity, and screened for lethality in vivo against D. suzukii and M. persicae as per methods in example 2 and example 8. The top performing peptides were selected and gave rise to the list of CAPA1 and CAPA2 peptides provided above in Table 1 which were then further tested in the following applied examples.
The aphid feeding protocol was devised according to Sadeghi et al (2009) as explained in example 1. Feeding discs were designed and manufactured as above. A standard sucrose-based artificial diet for M. persicae (30 aphids per chamber, 3 chambers per experiment unless otherwise stated) was produced as described in example 1 (Sadeghi et al, J. Insect Science, 2009) and provided the basal diet to which peptides were added for screening purposes. Peptides were diluted individually in the artificial diet to 10^−5 M. Lethality was scored after up to 120 hours (IRAC guidelines for aphid testing).
Membrane discs were also included to collect ‘honeydew’ secreted by feeding aphids and stained with ninhydrin to observe feeding patterns.
Comparison of purple stain in controls to treated aphids, show there is very little colour on many membranes where peptides were added.
Capa peptides cause mortality in M. persicae via feeding: At 120 hours, AH383 and AH387 peptides induce ˜60% mean (and median) lethality. Although mean lethality is lower with AH270/PEGAH270 (40%), 100% lethality is observed in one sample of 30 insects (AH270); and 90% in at least one sample of each of AH383, AH387 and PEGAH270 (FIG. 3). Note that PEGAH270 is a pegylated form of peptide AH270.

CapaR = target: T1, CapaR (Drosophila melanogaster, UniProt Q8ITC7); assay: Measurement of intracellular Ca2+ in S2 cells transfected with CapaR (agonist response); type: cell-based; settings: 10^−7 M; activity normalised to that of native Capa2 (designated 100%)
T1 construct: transiently transfected with the apoaequorin ORF; expressed in transfected cells; host or cells: Drosophila melanogaster S2 cells, transient transfection, expression induced with CuSO4
T1 sequence (Q8ITC7 1-477): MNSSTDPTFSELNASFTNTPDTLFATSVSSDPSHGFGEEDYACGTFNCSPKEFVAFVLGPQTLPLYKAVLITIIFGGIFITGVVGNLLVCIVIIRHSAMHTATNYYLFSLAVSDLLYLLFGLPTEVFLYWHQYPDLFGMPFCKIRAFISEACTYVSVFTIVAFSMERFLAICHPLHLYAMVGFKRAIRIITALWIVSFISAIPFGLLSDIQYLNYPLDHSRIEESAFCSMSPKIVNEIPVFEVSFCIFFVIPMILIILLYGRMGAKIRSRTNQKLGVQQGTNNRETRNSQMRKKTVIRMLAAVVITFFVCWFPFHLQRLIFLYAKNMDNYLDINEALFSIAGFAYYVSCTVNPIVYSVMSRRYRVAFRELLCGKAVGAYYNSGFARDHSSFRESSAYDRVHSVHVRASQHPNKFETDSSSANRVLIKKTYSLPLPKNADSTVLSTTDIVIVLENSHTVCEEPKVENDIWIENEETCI
Method: Drosophila melanogaster S2 cells, cultured under standard conditions (1) were transiently transfected with the apoaequorin ORF (Radford J C, Davies S A, Dow J A. Systematic G-protein-coupled receptor analysis in Drosophila melanogaster identifies a leucokinin receptor with novel roles. J Biol Chem. 2002; 277:38810-38817) and a receptor ORF construct, and expression induced using CuSO4. Transfected S2 cells were harvested and incubated with 2.5 μM coelenterazine in the dark at RT for 1-2 h as described (ibid). 25,000 cells were then placed in 135 μl Schneider's medium supplemented with 10% FCS in a well of a white polystyrene 96-well plate (Berthold Technologies). Bioluminescence recordings were carried out using a Mithras LB940 automated 96-well plate reader (Berthold Technologies) and MikroWin software. 15 μl of each of different peptides were applied to final concentrations as required.
Peptides were tested at 10^−7M.
At the end of each recording samples were disrupted by the addition of 100 μl lysis solution, and the [Ca^2+] concentrations calculated as previously described (Rosay P, Davies S A, Yu Y, Sozen A, Kaiser K, et al. Cell-type specific calcium signalling in a Drosophila epithelium. J Cell Sci. 1997; 110:1683-1692).
For the Capa1 and Capa2 peptides, the relevant native control peptide (D. melanogaster Capa1 or Capa2 respectively) was used as a control. Control agonist activity was normalised to 100% and activity of neuropeptide analogues is expressed relative to that.

[7] = Table 12, individual bees, 20% sucrose 0.1% ATPlus AH56
[8] = Table 12, 20% sucrose 0.1% ATPlus AH56
[9] = Table 11, individual bees, peptide 1 × 10 − 5M or Spirotetramat 25 uM

H-Ahx-LVAFPRV-NH2 [AH56]
Feeding Aphid, % lethality in population after adjustment for baseline (M. persicae [1]): 30%
Feeding D. suzukii, % lethality in population after adjustment for baseline ([2]; 10^−5 M, 48 hr exposure): 51%
D. suzukii (Mean% Lethality ± SD) ([2]; Peptide screening, Table 5, blank control 20.33): 50.63%
biostable in the presence of purified proteases [3]: > 24 h
Spray Aphid, % lethality in population after adjustment for baseline (Myzus persicae aphids; 10^−4 M): 41%
Spray Aphid, % lethality in population after adjustment for baseline (Myzus persicae aphids; 10^−5 M): 35%
lethal effect on bumblebees ([4]; 1×10^−5 M in 50% sucrose, 0.1% ATPlus, oral): No lethal effect
Volume remaining [4, 7]: 211 ul (2×) and 295 ul (2×) and 248 ul (2×) and 216 ul (2×) and 178 ul (2×)
Volume removed [4, 7]: 289 and 205 and 252 and 284 and 322
Volume remaining, group mean [4, 8]: 229.6 µL
Volume removed, group mean [4, 8]: 270.4
safety towards B. terrestris in the bumblebee oral toxicity assay [4]: safe
biostable to insect tissue extracts enriched for proteases [5]: > 3 h
M. persicae (% Lethality) (M. persicae [6]): 30%

CC(C)C[C@H](NC(=O)CCCCCN)C(=O)N[C@H](C(=O)N(C)[C@@H](C)C(=O)N[C@@H](Cc1ccccc1)C(=O)N1CCC[C@H]1C(=O)N[C@@H](CCCNC(=N)N)C(=O)N(C)[C@H](C(N)=O)C(C)C)C(C)C [AH270, H-Ahx-LV-(Me)A-FPR-(Me)V-NH2]
CapaR Ca^2+ Agonist response (CapaR): 85%
Liquid post exposure (weight), Mean ([4]; Table 11, group mean, n=10): 0.7794 g
liquid consumed per day post exposure, Mean ([4]; Table 11, group mean, n=10): 0.1949 g
Liquid post exposure (weight) [4, 9]: 0.9262 g and 0.7170 g and 1.8815 g and 0.8535 g and 0.6307 g and 0.4568 g and 0.3007 g and 0.5227 g and 1.1365 g and 0.3679 g
days alive [4, 9]: 4 days
liquid consumed per day post exposure [4, 9]: 0.2316 g and 0.1793 g and 0.4704 g and 0.2134 g and 0.1577 g and 0.1142 g and 0.0752 g and 0.1307 g and 0.2841 g and 0.0920 g
safety towards B. terrestris in the bumblebee oral toxicity assay [4]: safe
